Laboratory results reported in US8871934B2, “Fluorene compound and pharmaceutical use thereof” (Japan Tobacco Inc., priority 2008, dated 2014).

The compounds below were run against human PDHK2 (hPDHK2) (Homo sapiens (Human), UniProt Q15119) (assay: Inhibitory action of PDHK activity in vitro (kinase reaction, residual PDH activity measured)). Conditions: PDHK inhibitory activity, class symbol of IC50.
Assay type: biochemical

| Compound | IC50 |
| --- | --- |
| Cc1cc(C)c2c(c1)C(O)(C(F)(F)F)c1ccccc1-2 (centres unmarked) [compound 18] | 100 to 1000 nM |
| CC(=O)Nc1cccc2c1-c1ccccc1C2(O)C(F)(F)F (centres unmarked) [compound 19] | > 1000 nM |
| Nc1cccc2c1-c1ccccc1C2(O)C(F)(F)F (centres unmarked) [compound 20] | > 1000 nM |
| OC1(C(F)(F)F)c2ccccc2-c2c(Cl)cc(Cl)cc21 (centres unmarked) [compound 21] | 100 to 1000 nM |
| CC(=O)Nc1ccc2c(c1)C(O)(C(F)(F)F)c1ccccc1-2 (centres unmarked) [compound 22] | > 1000 nM |
| COC(=O)c1ccc2c(c1)C(O)(C(F)(F)F)c1ccccc1-2 (centres unmarked) [compound 23] | 100 to 1000 nM |
| O=C(O)c1ccc2c(c1)C(O)(C(F)(F)F)c1ccccc1-2 (centres unmarked) [compound 24] | > 1000 nM |
| CCc1cccc2c1-c1ccccc1C2(O)C(F)(F)F (centres unmarked) [compound 25] | > 1000 nM |
| Nc1ccc2c(c1)-c1ccccc1C2(O)C(F)(F)F (centres unmarked) [compound 26] | > 1000 nM |
| COC(=O)c1cccc2c1-c1ccccc1C2(O)C(F)(F)F (centres unmarked) [compound 27] | 100 to 1000 nM |
| CC(=O)Nc1ccc2c(c1)-c1ccccc1C2(O)C(F)(F)F (centres unmarked) [compound 28] | > 1000 nM |
| NC(=O)c1ccc2c(c1)C(O)(C(F)(F)F)c1ccccc1-2 (centres unmarked) [compound 29] | > 1000 nM |
| CNC(=O)c1ccc2c(c1)C(O)(C(F)(F)F)c1ccccc1-2 (centres unmarked) [compound 30] | > 1000 nM |
| CN(C)C(=O)c1ccc2c(c1)C(O)(C(F)(F)F)c1ccccc1-2 (centres unmarked) [compound 31] | > 1000 nM |
| O=C(O)c1cccc2c1-c1ccccc1C2(O)C(F)(F)F (centres unmarked) [compound 32] | > 1000 nM |
| NC(=O)c1cccc2c1-c1ccccc1C2(O)C(F)(F)F (centres unmarked) [compound 33] | > 1000 nM |
| CNC(=O)c1cccc2c1-c1ccccc1C2(O)C(F)(F)F (centres unmarked) [compound 34] | > 1000 nM |
| CN(C)C(=O)c1cccc2c1-c1ccccc1C2(O)C(F)(F)F (centres unmarked) [compound 35] | > 1000 nM |
| OC1(C(F)(F)F)c2ccccc2-c2ncc(Cl)cc21 (centres unmarked) [compound 36] | 100 to 1000 nM |
| COc1ccc2c(c1)C(O)(C(F)(F)F)c1ccccc1-2 (centres unmarked) [compound 37] | > 1000 nM |
| Oc1ccc2c(c1)C(O)(C(F)(F)F)c1ccccc1-2 (centres unmarked) [compound 38] | > 1000 nM |
| CCc1ccc2c(c1)C(O)(C(F)(F)F)c1ccccc1-2 (centres unmarked) [compound 39] | > 1000 nM |
| COC(=O)c1ccc2c(c1)-c1ccccc1C2(O)C(F)(F)F (centres unmarked) [compound 40] | > 1000 nM |
| O=C(O)c1ccc2c(c1)-c1ccccc1C2(O)C(F)(F)F (centres unmarked) [compound 41] | > 1000 nM |
| NC(=O)c1ccc2c(c1)-c1ccccc1C2(O)C(F)(F)F (centres unmarked) [compound 42] | > 1000 nM |
| CNC(=O)c1ccc2c(c1)-c1ccccc1C2(O)C(F)(F)F (centres unmarked) [compound 43] | > 1000 nM |
| CN(C)C(=O)c1ccc2c(c1)-c1ccccc1C2(O)C(F)(F)F (centres unmarked) [compound 44] | > 1000 nM |
| COC(=O)c1cc(C)c2c(c1)C(O)(C(F)(F)F)c1ccccc1-2 (centres unmarked) [compound 45] | 100 to 1000 nM |

Same assay, conditions: read-out: PDHK inhibitory activity IC50

| Compound | IC50 |
| --- | --- |
| Cc1cc(C)c2c(c1)C(O)(C(F)(F)F)c1ccccc1-2 (centres unmarked) [compound 18] | 457 nM |
| CC(=O)Nc1cccc2c1-c1ccccc1C2(O)C(F)(F)F (centres unmarked) [compound 19] | > 100000 nM |
| Nc1cccc2c1-c1ccccc1C2(O)C(F)(F)F (centres unmarked) [compound 20] | 3500 nM |
| OC1(C(F)(F)F)c2ccccc2-c2c(Cl)cc(Cl)cc21 (centres unmarked) [compound 21] | 302 nM |
| CC(=O)Nc1ccc2c(c1)C(O)(C(F)(F)F)c1ccccc1-2 (centres unmarked) [compound 22] | 16700 nM |
| COC(=O)c1ccc2c(c1)C(O)(C(F)(F)F)c1ccccc1-2 (centres unmarked) [compound 23] | 571 nM |
| O=C(O)c1ccc2c(c1)C(O)(C(F)(F)F)c1ccccc1-2 (centres unmarked) [compound 24] | > 100000 nM |
| CCc1cccc2c1-c1ccccc1C2(O)C(F)(F)F (centres unmarked) [compound 25] | 30900 nM |
| Nc1ccc2c(c1)-c1ccccc1C2(O)C(F)(F)F (centres unmarked) [compound 26] | 17600 nM |
| COC(=O)c1cccc2c1-c1ccccc1C2(O)C(F)(F)F (centres unmarked) [compound 27] | 848 nM |
| CC(=O)Nc1ccc2c(c1)-c1ccccc1C2(O)C(F)(F)F (centres unmarked) [compound 28] | 2820 nM |
| NC(=O)c1ccc2c(c1)C(O)(C(F)(F)F)c1ccccc1-2 (centres unmarked) [compound 29] | 5740 nM |
| CNC(=O)c1ccc2c(c1)C(O)(C(F)(F)F)c1ccccc1-2 (centres unmarked) [compound 30] | 8610 nM |
| CN(C)C(=O)c1ccc2c(c1)C(O)(C(F)(F)F)c1ccccc1-2 (centres unmarked) [compound 31] | 1350 nM |
| O=C(O)c1cccc2c1-c1ccccc1C2(O)C(F)(F)F (centres unmarked) [compound 32] | > 100000 nM |
| NC(=O)c1cccc2c1-c1ccccc1C2(O)C(F)(F)F (centres unmarked) [compound 33] | 1810 nM |
| CNC(=O)c1cccc2c1-c1ccccc1C2(O)C(F)(F)F (centres unmarked) [compound 34] | 33200 nM |
| CN(C)C(=O)c1cccc2c1-c1ccccc1C2(O)C(F)(F)F (centres unmarked) [compound 35] | > 100000 nM |
| OC1(C(F)(F)F)c2ccccc2-c2ncc(Cl)cc21 (centres unmarked) [compound 36] | 626 nM |
| COc1ccc2c(c1)C(O)(C(F)(F)F)c1ccccc1-2 (centres unmarked) [compound 37] | 3960 nM |
| Oc1ccc2c(c1)C(O)(C(F)(F)F)c1ccccc1-2 (centres unmarked) [compound 38] | 12000 nM |
| CCc1ccc2c(c1)C(O)(C(F)(F)F)c1ccccc1-2 (centres unmarked) [compound 39] | 4520 nM |
| COC(=O)c1ccc2c(c1)-c1ccccc1C2(O)C(F)(F)F (centres unmarked) [compound 40] | 2470 nM |
| O=C(O)c1ccc2c(c1)-c1ccccc1C2(O)C(F)(F)F (centres unmarked) [compound 41] | 68600 nM |
| NC(=O)c1ccc2c(c1)-c1ccccc1C2(O)C(F)(F)F (centres unmarked) [compound 42] | 5560 nM |
| CNC(=O)c1ccc2c(c1)-c1ccccc1C2(O)C(F)(F)F (centres unmarked) [compound 43] | 3920 nM |
| CN(C)C(=O)c1ccc2c(c1)-c1ccccc1C2(O)C(F)(F)F (centres unmarked) [compound 44] | > 100000 nM |
| COC(=O)c1cc(C)c2c(c1)C(O)(C(F)(F)F)c1ccccc1-2 (centres unmarked) [compound 45] | 247 nM |
